From ChEMBL document CHEMBL5034019, “Discovery of the Next-Generation Pan-TRK Kinase Inhibitors for the Treatment of Cancer” (J Med Chem, 2021) come the findings set out here.

The source made the active and inactive calls. The rule behind the calls is not given here. A value given as a limit tells only on which side of the number the result lay.

Data set [1] in a line: Toxicity in mouse xenografted with mouse BaF3 cells transfected with ETV6-NTRK3-G623R mutant assessed as weight loss at 100 mg/kg, po administered once daily for 21 days and measured twice weekly. Conditions: in vivo, 504 h.
Data set [2] can be described thus: Clearance in Sprague-Dawley rat at 3 mg/kg measured up to 24 hrs by LC/MS/MS analysis. Format: ADME, organism-based. Conditions: in vivo.
In data set [3] the test system is KM12. Kind of data set: Antiproliferative activity against TrK fused human KM12 cells. Format: functional, cell-based.
Data set [4] in a line: Toxicity in mouse xenografted with mouse BaF3 cells transfected with LMNA-NTRK1 assessed as death at 100 mg/kg, po administered once daily for 21 days and measured twice weekly. Conditions: in vivo, 504 h.
Data set [5] has as its system BaF3. Nature of the data set: Antitumor activity against mouse BaF3 cells transfected with LMNA-NTRK1 xenografted in mouse assessed as tumor growth inhibition at 100 mg/kg, po administered once daily for 21 days and measured twice weekly. Conditions: time 21.0 day.
Data set [6] is described as follows: cells. Conditions: Homo sapiens, CUTO-3.
Description: Antiproliferative activity against TrK fused human CUTO-3 cells
Data set [7] is described as follows: Volume of distribution in Sprague-Dawley rat at 3 mg/kg measured up to 24 hrs by LC-MS/MS analysis. Format: ADME, organism-based. To be noted: in vivo.
Data set [8] has as its system BaF3. Nature of the data set: Antitumor activity against mouse BaF3 cells transfected with ETV6-NTRK3-G623R mutant xenografted in mouse assessed as tumor growth inhibition at 100 mg/kg, po administered once daily for 21 days and measured twice weekly. Conditions: time 21.0 day.
Data set [9] deals with T1, Proto-oncogene tyrosine-protein kinase ROS (Homo sapiens, UniProt P08922).
T1 sequence (P08922 whole entry, the tested form may be a part): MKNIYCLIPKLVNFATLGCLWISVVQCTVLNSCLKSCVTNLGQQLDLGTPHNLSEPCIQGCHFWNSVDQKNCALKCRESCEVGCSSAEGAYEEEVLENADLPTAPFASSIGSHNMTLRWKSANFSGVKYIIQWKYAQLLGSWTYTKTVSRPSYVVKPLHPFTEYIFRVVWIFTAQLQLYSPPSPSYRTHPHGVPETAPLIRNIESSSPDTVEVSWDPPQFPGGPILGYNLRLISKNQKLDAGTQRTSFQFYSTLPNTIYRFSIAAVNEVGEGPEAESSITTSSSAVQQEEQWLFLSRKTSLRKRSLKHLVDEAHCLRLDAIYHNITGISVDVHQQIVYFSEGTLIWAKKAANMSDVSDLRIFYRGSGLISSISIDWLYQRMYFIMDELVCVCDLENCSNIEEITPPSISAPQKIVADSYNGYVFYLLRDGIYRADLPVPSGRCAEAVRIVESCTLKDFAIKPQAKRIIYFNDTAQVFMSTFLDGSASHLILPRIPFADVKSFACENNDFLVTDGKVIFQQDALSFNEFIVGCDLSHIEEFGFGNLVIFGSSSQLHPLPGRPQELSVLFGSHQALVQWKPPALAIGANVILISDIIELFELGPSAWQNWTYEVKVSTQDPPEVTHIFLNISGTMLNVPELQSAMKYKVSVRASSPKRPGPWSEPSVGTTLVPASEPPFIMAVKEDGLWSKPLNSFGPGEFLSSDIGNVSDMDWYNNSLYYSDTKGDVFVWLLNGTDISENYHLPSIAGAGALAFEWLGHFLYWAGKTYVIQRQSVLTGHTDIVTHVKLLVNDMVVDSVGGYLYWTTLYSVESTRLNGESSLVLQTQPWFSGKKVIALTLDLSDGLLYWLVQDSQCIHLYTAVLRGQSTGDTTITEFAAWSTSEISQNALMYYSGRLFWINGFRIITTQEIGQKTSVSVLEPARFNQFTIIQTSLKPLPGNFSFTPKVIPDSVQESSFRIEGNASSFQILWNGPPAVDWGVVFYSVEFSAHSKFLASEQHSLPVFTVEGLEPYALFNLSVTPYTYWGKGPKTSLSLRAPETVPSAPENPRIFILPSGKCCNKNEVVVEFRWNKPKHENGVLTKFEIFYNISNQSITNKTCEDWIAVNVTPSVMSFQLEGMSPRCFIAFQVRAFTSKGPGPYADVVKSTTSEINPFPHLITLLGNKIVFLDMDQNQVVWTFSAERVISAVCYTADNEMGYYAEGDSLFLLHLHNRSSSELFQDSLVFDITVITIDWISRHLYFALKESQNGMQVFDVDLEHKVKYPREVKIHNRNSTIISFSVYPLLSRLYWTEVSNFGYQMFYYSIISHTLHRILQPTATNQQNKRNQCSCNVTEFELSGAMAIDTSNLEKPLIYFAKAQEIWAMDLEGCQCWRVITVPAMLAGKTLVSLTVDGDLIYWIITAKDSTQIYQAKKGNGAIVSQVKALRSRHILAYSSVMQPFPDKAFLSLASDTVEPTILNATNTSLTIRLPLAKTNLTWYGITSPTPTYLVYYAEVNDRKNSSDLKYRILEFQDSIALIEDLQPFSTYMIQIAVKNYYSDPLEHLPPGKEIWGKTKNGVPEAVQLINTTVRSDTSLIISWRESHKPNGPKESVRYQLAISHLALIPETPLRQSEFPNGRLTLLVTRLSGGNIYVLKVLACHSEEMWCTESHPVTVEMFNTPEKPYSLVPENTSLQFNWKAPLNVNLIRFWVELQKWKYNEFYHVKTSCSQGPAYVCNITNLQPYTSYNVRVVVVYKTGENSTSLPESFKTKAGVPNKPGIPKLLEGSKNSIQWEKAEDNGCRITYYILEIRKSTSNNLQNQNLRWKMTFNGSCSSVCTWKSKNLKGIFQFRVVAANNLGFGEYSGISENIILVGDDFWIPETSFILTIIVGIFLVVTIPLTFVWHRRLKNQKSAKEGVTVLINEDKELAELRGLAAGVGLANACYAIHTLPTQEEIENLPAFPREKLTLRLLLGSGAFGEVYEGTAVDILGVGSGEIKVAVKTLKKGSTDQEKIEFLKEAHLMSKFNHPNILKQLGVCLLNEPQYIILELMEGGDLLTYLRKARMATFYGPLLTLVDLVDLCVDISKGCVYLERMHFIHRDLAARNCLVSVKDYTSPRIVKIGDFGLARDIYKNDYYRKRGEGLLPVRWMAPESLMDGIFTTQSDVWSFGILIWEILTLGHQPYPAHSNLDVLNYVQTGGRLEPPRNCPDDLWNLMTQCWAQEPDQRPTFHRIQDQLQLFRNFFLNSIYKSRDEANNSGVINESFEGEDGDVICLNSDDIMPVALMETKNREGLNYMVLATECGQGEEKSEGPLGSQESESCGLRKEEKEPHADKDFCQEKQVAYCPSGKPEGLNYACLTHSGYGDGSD
Description: Inhibition of ROS1 (unknown origin) incubated for 120 mins in presence of 33P-ATP
The target of data set [10] is Fibroblast growth factor receptor 2 (Homo sapiens) (UniProt P21802). Nature of the data set: Inhibition of recombinant human FGFR2 (456 to 770 residues) assessed as residual activity at 0.5 uM using poly(Glu, Tyr) 4:1 as substrate at 40 mins in presence of [gamma-33ATP] by scintillation counting based radiometry assay relative to control.
Data set [11] can be described thus: Cmax in male Sprague-Dawley rat at 10 mg/kg, po measured up to 24 hrs by LC-MS/MS analysis. Format: ADME, organism-based. The arrangement: route oral, dose 10 mg/kg, time <=24. To be noted: in vivo.
Data set [12] deals with Fibroblast growth factor receptor 4 (Homo sapiens) (UniProt P22455). Nature of the data set: Inhibition of recombinant human FGFR4 (442 to 755 residues) assessed as residual activity at 0.5 uM using poly(Glu, Tyr) 4:1 as substrate at 40 mins in presence of [gamma-33ATP] by scintillation counting based radiometry assay relative to control.
Chain of Fibroblast growth factor receptor 4 (Homo sapiens) (P22455 22-802 limits assumed): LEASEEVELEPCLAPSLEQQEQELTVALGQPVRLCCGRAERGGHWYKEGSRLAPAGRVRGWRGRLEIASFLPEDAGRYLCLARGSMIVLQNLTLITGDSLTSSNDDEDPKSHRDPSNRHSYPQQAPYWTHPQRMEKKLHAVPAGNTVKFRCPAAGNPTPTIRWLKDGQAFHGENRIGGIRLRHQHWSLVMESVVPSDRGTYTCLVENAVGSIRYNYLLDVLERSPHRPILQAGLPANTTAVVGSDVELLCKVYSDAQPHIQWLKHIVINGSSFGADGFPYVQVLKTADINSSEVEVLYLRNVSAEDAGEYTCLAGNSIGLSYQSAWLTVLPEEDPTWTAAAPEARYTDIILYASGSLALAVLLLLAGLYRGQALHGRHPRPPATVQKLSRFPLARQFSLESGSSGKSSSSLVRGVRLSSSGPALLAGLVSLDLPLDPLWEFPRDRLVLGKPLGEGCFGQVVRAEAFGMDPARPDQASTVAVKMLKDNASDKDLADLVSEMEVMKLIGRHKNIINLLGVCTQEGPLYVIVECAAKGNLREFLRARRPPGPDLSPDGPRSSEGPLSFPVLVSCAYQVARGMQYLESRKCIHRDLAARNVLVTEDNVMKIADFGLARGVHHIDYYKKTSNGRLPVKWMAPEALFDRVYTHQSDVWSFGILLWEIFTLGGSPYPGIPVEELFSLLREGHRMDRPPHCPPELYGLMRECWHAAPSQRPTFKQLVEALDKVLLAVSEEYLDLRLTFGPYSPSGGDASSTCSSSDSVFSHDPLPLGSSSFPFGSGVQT
Data set [13] in a line: Oral bioavailability in female Sprague-Dawley rat at 10 mg/kg measured up to 24 hrs by LC/MS/MS analysis. Format: ADME, organism-based. To be noted: in vivo.
Data set [14] has as its system Tyrosine-protein kinase Blk (Homo sapiens), P51451 [UNDEFINED MUTATION]. Nature of the data set: Inhibition of full-length recombinant human BLK M287V mutant assessed as residual activity at 0.5 uM using poly(Glu, Tyr) 4:1 as substrate measured after 40 mins in presence of [gamma33P]ATP by scintillation counting method relative to control.
Data set [15] concerns Epidermal growth factor receptor (Homo sapiens), P00533 [T790M]. Kind of data set: Inhibition of recombinant human EGFR T790M mutant (696 to end residues) assessed as residual activity at 0.5 uM using poly(Glu, Tyr) 4:1 as substrate at 40 mins in presence of [gamma-33ATP] by scintillation counting based radiometry assay relative to control.
Data set [16] addresses T1, Proto-oncogene tyrosine-protein kinase ROS. Kind of data set: Inhibition of recombinant human Ros1 (1883 to end residues) assessed as residual activity at 0.5 uM using KKKSPGEYVNIEFG as substrate measured after 40 mins in presence of [gamma33P]ATP by scintillation counting method relative to control.
In data set [17] the test system is RAF proto-oncogene serine/threonine-protein kinase (Homo sapiens), P04049 [Y340D,Y341D]. Kind of data set: Inhibition of recombinant human C-Raf Y340D/Y341D double mutant (306 to end residues) assessed as residual activity at 0.5 uM poly(Glu, Tyr) 4:1 as substrate incubated 40 mins in presence of [gamma-33ATP] by scintillation counting based radiometry assay relative to control.

The target of data set [18] is Receptor-interacting serine/threonine-protein kinase 2 (Homo sapiens) (UniProt O43353). Nature of the data set: Inhibition of recombinant human RIPK2 (1 to 299 residues) assessed as residual activity at 0.5 uM using myelin basic protein as substrate incubated for 120 mins in presence of [gamma33P]ATP by scintillation counting based radiometry assay relative to control.
Chain of Receptor-interacting serine/threonine-protein kinase 2 (Homo sapiens) (O43353 whole entry, the tested form may be a part): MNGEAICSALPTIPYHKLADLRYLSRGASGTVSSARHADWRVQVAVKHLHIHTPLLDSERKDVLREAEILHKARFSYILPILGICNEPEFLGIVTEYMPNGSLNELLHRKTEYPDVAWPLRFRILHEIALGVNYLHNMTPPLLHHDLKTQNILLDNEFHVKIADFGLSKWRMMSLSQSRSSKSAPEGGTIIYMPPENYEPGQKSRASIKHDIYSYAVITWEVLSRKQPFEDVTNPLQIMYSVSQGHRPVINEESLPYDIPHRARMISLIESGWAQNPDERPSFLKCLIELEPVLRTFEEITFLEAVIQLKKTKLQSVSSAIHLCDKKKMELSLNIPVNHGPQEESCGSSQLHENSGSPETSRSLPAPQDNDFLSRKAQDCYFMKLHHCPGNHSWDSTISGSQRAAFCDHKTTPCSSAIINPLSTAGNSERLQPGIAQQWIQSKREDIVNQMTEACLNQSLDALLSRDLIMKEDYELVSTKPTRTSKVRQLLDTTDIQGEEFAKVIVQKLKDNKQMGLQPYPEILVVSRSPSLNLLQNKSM

Data set [19] is described as follows: Half life in male Sprague-Dawley rat at 2 mg/kg, iv measured up to 24 hrs by LC-MS/MS analysis. Format: ADME, organism-based. To be noted: in vivo.
Data set [20] has as its system Mast/stem cell growth factor receptor Kit (Homo sapiens), P10721 [D816V]. Kind of data set: Inhibition of recombinant human C-Kit D816V mutant (544 to end residues) assessed as residual activity at 0.5 uM poly(Glu, Tyr) 4:1 as substrate incubated 40 mins in presence of [gamma-33ATP] by scintillation counting based radiometry assay relative to control.
Data set [21] in a line: C0 in female Sprague-Dawley rat at 2 mg/kg, iv measured up to 24 hrs by LC/MS/MS analysis. Format: ADME, organism-based. To be noted: in vivo.
Data set [22] deals with Hepatocyte growth factor receptor (Homo sapiens), P08581 [Y1248H]. Kind of data set: Inhibition of recombinant human Met Y1248H mutant (974 to end residues) assessed as residual activity at 0.5 uM using KKKGQEEEYVFIE as substrate incubated for 40 mins in presence of [gamma-33P]-ATP by scintillation counting method relative to control.
For data set [23], the target named is High affinity nerve growth factor receptor (Homo sapiens, UniProt P04629).
Chain of High affinity nerve growth factor receptor (P04629 whole entry): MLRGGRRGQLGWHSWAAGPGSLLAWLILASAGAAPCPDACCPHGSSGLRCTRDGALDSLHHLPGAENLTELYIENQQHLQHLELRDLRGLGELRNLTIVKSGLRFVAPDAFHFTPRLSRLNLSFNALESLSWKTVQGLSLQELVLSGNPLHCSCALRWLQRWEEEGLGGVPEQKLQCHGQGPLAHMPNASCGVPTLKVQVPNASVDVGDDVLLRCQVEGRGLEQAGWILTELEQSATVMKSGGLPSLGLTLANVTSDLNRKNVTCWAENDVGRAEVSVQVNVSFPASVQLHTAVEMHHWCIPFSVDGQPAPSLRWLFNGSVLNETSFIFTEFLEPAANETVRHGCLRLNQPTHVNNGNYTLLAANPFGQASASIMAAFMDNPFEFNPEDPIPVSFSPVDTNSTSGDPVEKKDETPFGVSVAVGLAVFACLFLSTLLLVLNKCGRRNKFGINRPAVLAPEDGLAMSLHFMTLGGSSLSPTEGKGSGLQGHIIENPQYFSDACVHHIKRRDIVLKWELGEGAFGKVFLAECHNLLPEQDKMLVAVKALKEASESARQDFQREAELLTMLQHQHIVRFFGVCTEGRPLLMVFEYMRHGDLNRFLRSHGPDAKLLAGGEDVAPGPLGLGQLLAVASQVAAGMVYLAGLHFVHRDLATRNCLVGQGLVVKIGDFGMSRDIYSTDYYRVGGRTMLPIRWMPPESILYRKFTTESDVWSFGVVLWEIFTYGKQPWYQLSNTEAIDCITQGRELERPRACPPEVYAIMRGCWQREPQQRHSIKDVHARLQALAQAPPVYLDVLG
Description: Inhibition of TrKA (unknown origin) incubated for 120 mins in presence of 33P-ATP
In data set [24] the test system is Tyrosine-protein kinase BTK (Homo sapiens), Q06187 [R28H]. Nature of the data set: Inhibition of recombinant full length human BTK R28H mutant assessed as residual activity at 0.5 uM using LSNLYHQGKFLQT as substrate incubated for 40 mins in presence of [gamma-33P]-ATP by scintillation counting method relative to control.
Data set [25] relates to Mast/stem cell growth factor receptor Kit (Homo sapiens), P10721 [D816H]. Kind of data set: Inhibition of recombinant human C-Kit D816H mutant (544 to end residues) assessed as residual activity at 0.5 uM poly(Glu, Tyr) 4:1 as substrate incubated 40 mins in presence of [gamma-33ATP] by scintillation counting based radiometry assay relative to control.
A short description of data set [26]: Half life in female Sprague-Dawley rat at 2 mg/kg, iv measured up to 24 hrs by LC-MS/MS analysis. Format: ADME, organism-based. To be noted: in vivo.
Data set [27] addresses Platelet-derived growth factor receptor alpha (Homo sapiens) (UniProt P16234). Kind of data set: Inhibition of human PDGFRalpha (550 to end residues) assessed as residual activity at 0.5 uM poly(Glu, Tyr) 4:1 as substrate measured after 40 mins in presence of [gamma33P]ATP by scintillation counting method relative to control.

Chain of Tyrosine-protein kinase Blk (Homo sapiens), P51451 [UNDEFINED MUTATION] (P51451 whole entry, looked up, stated change not applied): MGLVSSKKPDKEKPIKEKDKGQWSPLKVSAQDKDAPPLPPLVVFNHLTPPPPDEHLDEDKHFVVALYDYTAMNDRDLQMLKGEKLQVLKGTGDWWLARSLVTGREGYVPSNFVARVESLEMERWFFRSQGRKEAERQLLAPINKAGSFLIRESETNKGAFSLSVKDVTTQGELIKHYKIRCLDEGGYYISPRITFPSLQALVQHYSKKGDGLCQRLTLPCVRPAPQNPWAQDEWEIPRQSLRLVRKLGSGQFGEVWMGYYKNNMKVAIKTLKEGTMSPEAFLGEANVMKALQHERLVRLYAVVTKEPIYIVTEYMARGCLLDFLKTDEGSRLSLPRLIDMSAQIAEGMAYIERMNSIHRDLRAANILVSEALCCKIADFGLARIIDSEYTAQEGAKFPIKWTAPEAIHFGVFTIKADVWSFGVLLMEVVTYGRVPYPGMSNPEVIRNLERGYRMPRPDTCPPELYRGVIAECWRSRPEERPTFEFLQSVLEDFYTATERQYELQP

Take `C[C@@H]1CCc2ncc(F)cc2[C@H]2CCCN2c2ccn3ncc(c3n2)C(=O)N1` [SELITRECTINIB]: the Activity entry in [1] and in data set [4] was “Toxic” each time. Also, the clearance (commonly a measure of how efficiently the substance is removed, as volume per time) in data set [2] came to 11.8 mL/min/kg. Moreover, the 50% inhibitory concentration (IC50) in [3] and in [6] was not above 5 nM each time. The result in data set [5] and in data set [8] was Active. In addition, the Vd (in general, the apparent volume that relates the amount in the body to the concentration in plasma or blood) in data set [7] came to 0.5 L/kg.
As for `O=C1NC2(CC2)COc2ncc(F)cc2[C@H]2COCCN2c2ccn3ncc1c3n2`, the half-maximal inhibitory concentration (IC50) (in general, the concentration needed to halve the response being measured) is 1 nM in data set [9] and 2.4 nM in data set [23]. In addition, the Activity in data set [10] worked out at 93%; in data set [12], 114%; in [14] it was 46%; in data set [15], 105%; in [16], 16%; in data set [17], 103%. Further, the Activity in [18] was 93%; in data set [20], 101%; in [22], 89%; in [24] it was 74%; in [25], 96%; in data set [27] it was 106%. For the same compound, the Cmax (usually the peak of the concentration-time curve) in [11] was 6.38 µM. The bioavailability (commonly dose-corrected exposure relative to a reference, in per cent) in data set [13] was determined as 61.9%. Also, the half-life (as a rule, how long it takes for the measured level to halve) in data set [19] is 0.872 h; in [26] it was 2.21 h. Moreover, in data set [21], the C0 at 24 h came to 3.51 µM.
